Test results published in US9884818B2, “Sulphamoylpyrrolamide derivatives and the use thereof as medicaments for the treatment of hepatitis B” (Janssen Sciences Ireland UC, priority 2013, dated 2018).

Experiments:
HBV [1] = experiment: Anti-HBV activity, HepG2.2.15 stable transfected cell line, HBV DNA from secreted virions by realtime PCR; type: cell-based; settings: HepG2.2.15 cells, 6 days of treatment, HBV DNA from secreted virions, read-out: HepG2 2.15 EC50
HBV [2] = experiment: Anti-HBV activity, HepG2.117 inducibly HBV producing cell line (Tet-off), intracellular HBV DNA by realtime PCR; type: cell-based; settings: Hepatitis B virus, HepG2.117, 72 h, HepG2.117 cells, 3 days of treatment, intracellular HBV DNA; read-out: HepG2 117 EC50
[3] = Cytotoxicity in HepG2 cells, Resazurin viability assay; settings: human, HepG2 cells, HepG2 4 days CC50 (μM), incubated for 4 days, Resazurin assay
[4] = Hepatitis B virus, HepG2.2.15, 144 h

| SMILES | EC50 (HBV [1]; [4]) [nM] | EC50 (HBV [2]) [nM] | CC50 at 4 days [3] [µM] | EC50 (HBV [1]) [nM] |
| --- | --- | --- | --- | --- |
| C[C@@H](NS(=O)(=O)c1cn(C)c(C(=O)Nc2ccc(F)c(Cl)c2F)c1Cl)C(F)(F)F [Compound 218, 3-Chloro-N-(3-chloro-2,4-difluorophenyl)-1-methyl-4-{[(1R)-2,2,2-trifluoro-1-methylethyl]sulfamoyl}-1H-pyrrole-2-carboxamide] | 9 | 7 | > 25 | – |
| Cn1cc(S(=O)(=O)NC(C)(C)C(F)(F)F)cc1C(=O)Nc1ccc(F)c(F)c1 [Compound 95, N-(3,4-Difluorophenyl)-1-methyl-4-[(2,2,2-trifluoro-1,1-dimethylethyl)-sulfamoyl]-1H-pyrrole-2-carboxamide] | 130 | 60 | > 25 | – |
| Cn1cc(S(=O)(=O)N[C@H]2C[C@@H](O)C2)cc1C(=O)Nc1ccc(F)c(F)c1 [Compound 25, N-(3,4-difluorophenyl)-4-[(3-hydroxycyclobutyl)sulfamoyl]-1-methyl-pyrrole-2-carboxamide] | 340 | 230 | > 25 | – |
| CC(C)NS(=O)(=O)c1cc(C(=O)Nc2cccc(C#N)c2)n(C)c1 [Compound 177, N-(3-Cyanophenyl)-1-methyl-4-[(1-methylethyl)sulfamoyl]-1H-pyrrole-2-carboxamide] | 330 | 260 | > 25 | – |
| C[C@H](NS(=O)(=O)c1cc(C(=O)Nc2ccc(F)c(F)c2F)n(C)c1)C(F)(F)F [Compound 154, 1-Methyl-4-{[(1S)-2,2,2-trifluoro-1-methylethyl]sulfamoyl}-N-(2,3,4-trifluorophenyl)-1H-pyrrole-2-carboxamide] | 130 | 80 | > 25 | – |
| CC(CC(F)(F)F)NS(=O)(=O)c1cc(C(=O)Nc2cc(F)c(F)c(Cl)c2)n(C)c1 (single isomer, unassigned) [Compound 169a, N-(3-Chloro-4,5-difluorophenyl)-1-methyl-4-[(3,3,3-trifluoro-1-methylpropyl)sulfamoyl]-1H-pyrrole-2-carboxamide] | – | 50 | 16.1 | 140 |
| Cn1cc(S(=O)(=O)NC2(C)COC2)cc1C(=O)Nc1cc(F)cc(C(F)(F)F)c1 [Compound 45, N-[3-fluoro-5-(trifluoromethyl)phenyl]-1-methyl-4-[(3-methyloxetan-3-yl)sulfamoyl]pyrrole-2-carboxamide] | 320 | 340 | > 25 | – |
| C[C@@H](NS(=O)(=O)c1cc(C(=O)Nc2ccc(F)c(Br)c2)n(C)c1)C(F)(F)F [Compound 124, N-(3-Bromo-4-fluorophenyl)-1-methyl-4-{[(1R)-2,2,2-trifluoro-1-methylethyl]sulfamoyl}-1H-pyrrole-2-carboxamide] | 40 | 40 | > 25 | – |
| Cn1cc(S(=O)(=O)NC2(C(F)(F)F)CCC2)cc1C(=O)Nc1ccc(F)c(C#N)c1 [Compound 241, N-(3-Cyano-4-fluorophenyl)-1-methyl-4-{[1-(trifluoromethyl)cyclo-butyl]sulfamoyl}-1H-pyrrole-2-carboxamide] | 10 | 10 | > 25 | – |
| CC[C@H](NS(=O)(=O)c1cc(C(=O)Nc2ccc(F)c(C#N)c2)n(C)c1)C(F)(F)F [Compound 239, N-(3-Cyano-4-fluorophenyl)-1-methyl-4-{[(1S)-1-(trifluoromethyl)-propyl]sulfamoyl}-1H-pyrrole-2-carboxamide] | 20 | 10 | > 25 | – |
| Cn1cc(S(=O)(=O)NCC(F)(F)F)cc1C(=O)Nc1ccc(F)c(Br)c1 [Compound 135, N-(3-Bromo-4-fluorophenyl)-1-methyl-4-[(2,2,2-trifluoroethyl)sulfamoyl]-1H-pyrrole-2-carboxamide] | 20 | 260 | > 25 | – |
| Cc1cc(NC(=O)c2c(F)c(S(=O)(=O)NC3(C)COC3)cn2C)ccc1F [Compound 94, 3-Fluoro-N-(4-fluoro-3-methylphenyl)-1-methyl-4-[(3-methyloxetan-3-yl)sulfamoyl]-1H-pyrrole-2-carboxamide] | 9 | 10 | > 25 | – |
| CC(NS(=O)(=O)c1cc(C(=O)Nc2ccc(F)c(Cl)c2F)n(C)c1)C(F)F (stereo not shown) [Compound 252, N-(3-chloro-2,4-difluoro-phenyl)-4-[(2,2-difluoro-1-methyl-ethyl)sulfamoyl]-1-methyl-1H-pyrrole-2-carboxamide] | 50 | 80 | > 25 | – |
| Cc1c(S(=O)(=O)N[C@H](C)C(F)(F)F)cc(C(=O)Nc2ccc(F)c(F)c2)n1C [Compound 139, N-(3,4-Difluorophenyl)-1,5-dimethyl-4-{[(1R)-2,2,2-trifluoro-1-methylethyl]sulfamoyl}-1H-pyrrole-2-carboxamide] | 50 | 30 | > 25 | – |
| Cn1cc(S(=O)(=O)NC2CCC(F)(F)C2)cc1C(=O)Nc1cc(F)c(F)c(Cl)c1 (single isomer, unassigned) [Compound 166a, N-(3-Chloro-4,5-difluorophenyl)-4-[(3,3-difluorocyclopentyl)sulfamoyl]-1-methyl-1H-pyrrole-2-carboxamide] | – | 100 | 17.9 | 140 |
| Cn1cc(S(=O)(=O)NC2(C(F)(F)F)CCOC2)cc1C(=O)Nc1ccc(F)c(C#N)c1 (single isomer, unassigned) [Compound 228a, N-(3-Cyano-4-fluorophenyl)-1-methyl-4-{[3-(trifluoromethyl)tetrahydrofuran-3-yl]sulfamoyl}-1H-pyrrole-2-carboxamide] | 30 | 30 | > 25 | – |
| CC(C)NS(=O)(=O)c1cn(C)c(C(=O)Nc2ccc(F)c(Cl)c2F)c1F [Compound 234, N-(3-Chloro-2,4-difluorophenyl)-3-fluoro-1-methyl-4-[(1-methyl-ethyl)sulfamoyl]-1H-pyrrole-2-carboxamide] | 20 | 30 | > 25 | – |
| Cn1cc(S(=O)(=O)NC(C)(C)C(F)(F)F)cc1C(=O)Nc1ccc(F)c(C#N)c1 [Compound 237, N-(3-Cyano-4-fluorophenyl)-1-methyl-4-[(2,2,2-trifluoro-1,1-di-methylethyl)sulfamoyl]-1H-pyrrole-2-carboxamide] | 80 | 100 | > 25 | – |
| Cn1cc(S(=O)(=O)NC2(C)CC2)cc1C(=O)Nc1ccc(F)c(C#N)c1 [Compound 244, N-(3-cyano-4-fluoro-phenyl)-1-methyl-4-[(1-methylcyclopropyl)-sulfamoyl]pyrrole-2-carboxamide] | 140 | 530 | > 25 | – |
| C[C@@H](NS(=O)(=O)c1cn(C)c(C(=O)Nc2ccc(F)cc2F)c1F)C(F)(F)F [Compound 312, N-(2,4-difluorophenyl)-3-fluoro-1-methyl-4-[[(1R)-2,2,2-trifluoro-1-methyl-ethyl]sulfamoyl]pyrrole-2-carboxamide] | – | 60 | > 25 | – |
| C[C@@H](NS(=O)(=O)c1c(Cl)c(C(=O)Nc2ccc(F)c(C#N)c2)n(C)c1C1CC1)C(F)(F)F [Compound 302, 3-chloro-N-(3-cyano-4-fluoro-phenyl)-5-cyclopropyl-1-methyl-4-[[(1R)-2,2,2-trifluoro-1-methyl-ethyl]sulfamoyl]pyrrole-2-carboxamide] | – | 30 | > 25 | – |
